For assay [1], the target named is Neuronal acetylcholine receptor subunit alpha-4 (Rattus norvegicus, UniProt P09483).
Assay [2] concerns the target Neuronal acetylcholine receptor subunit alpha-7 (Rattus norvegicus, UniProt Q05941).

Chain of Neuronal acetylcholine receptor subunit alpha-7 (Q05941 whole entry): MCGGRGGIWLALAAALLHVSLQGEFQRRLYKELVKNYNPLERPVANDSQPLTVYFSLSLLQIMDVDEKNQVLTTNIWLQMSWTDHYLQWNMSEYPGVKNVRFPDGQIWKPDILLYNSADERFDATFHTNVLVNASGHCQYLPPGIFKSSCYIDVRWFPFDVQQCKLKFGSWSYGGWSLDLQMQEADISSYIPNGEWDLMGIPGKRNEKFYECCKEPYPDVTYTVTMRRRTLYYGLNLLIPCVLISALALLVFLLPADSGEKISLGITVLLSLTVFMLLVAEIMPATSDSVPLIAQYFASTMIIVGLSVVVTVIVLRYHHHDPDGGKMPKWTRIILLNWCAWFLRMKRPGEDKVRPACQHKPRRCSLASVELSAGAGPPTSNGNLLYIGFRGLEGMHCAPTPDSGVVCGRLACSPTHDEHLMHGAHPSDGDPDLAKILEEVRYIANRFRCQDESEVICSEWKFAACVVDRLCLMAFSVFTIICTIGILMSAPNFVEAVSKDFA
Chain of Neuronal acetylcholine receptor subunit alpha-4 (P09483 whole entry): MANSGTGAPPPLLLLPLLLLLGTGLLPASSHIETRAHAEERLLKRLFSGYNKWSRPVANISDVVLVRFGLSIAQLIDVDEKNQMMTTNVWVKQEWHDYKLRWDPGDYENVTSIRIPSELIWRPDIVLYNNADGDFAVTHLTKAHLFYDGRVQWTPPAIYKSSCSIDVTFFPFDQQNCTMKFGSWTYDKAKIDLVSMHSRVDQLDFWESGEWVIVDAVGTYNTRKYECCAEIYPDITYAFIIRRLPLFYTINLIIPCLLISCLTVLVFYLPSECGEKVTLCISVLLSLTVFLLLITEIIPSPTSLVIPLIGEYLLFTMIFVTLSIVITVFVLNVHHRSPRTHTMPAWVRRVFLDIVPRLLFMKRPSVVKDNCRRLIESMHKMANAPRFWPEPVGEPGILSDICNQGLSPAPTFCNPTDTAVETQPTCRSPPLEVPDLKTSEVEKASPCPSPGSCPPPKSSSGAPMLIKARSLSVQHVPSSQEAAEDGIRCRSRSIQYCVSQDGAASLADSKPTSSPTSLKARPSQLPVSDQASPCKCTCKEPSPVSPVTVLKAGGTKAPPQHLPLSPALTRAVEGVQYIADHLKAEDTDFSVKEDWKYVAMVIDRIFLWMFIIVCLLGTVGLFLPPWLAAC

Take `COc1ccc(C=C2CCCN=C2c2cccnc2)c(OC)c1` [CAS_156223-05-1]: the results for the Ki in assay [1] and in assay [2] were 0.278 µM and 0.596 µM, respectively.

Turning to `COC1CC=C2CCN3CCC4=C(CC(=O)OC4)C23C1` (stereo not drawn) [NSC_31762], the Ki in assay [1] is 0.0246 µM; in assay [2] it was 7.7 µM.

As for `CCN1CC2(COC(=O)c3ccccc3-n3c(O)cc(C)c3O)CCC(OC)C34C5CC6C(OC)CC(O)(C5C6OC)C(O)(C(OC)C23)C14` (stereo not drawn) [CAS_21019-30-7], the affinity in assay [1], expressed as Ki, was 0.585 µM.

With `c1cncc(OCC2CCN2)c1` (stereo not drawn) [A-85380], in assay [2], the affinity corresponds to a Ki of 0.0549 µM.

For `C[N+](C)(C)CCOC(N)=O` [(2-Hydroxyethyl)trimethyl ammonium chloride carbamate], the figures for the Ki in assay [1] and in assay [2] were 0.0664 µM and 9.92 µM, respectively.

Turning to `CNC(=O)OCC[N+](C)(C)C` [CAS_14721-69-8], the values for the Ki in assay [1] and in assay [2] were 0.00251 µM and 4.35 µM, respectively.

In the case of `Cc1cc(C2CCCN2C)on1` (stereo not drawn) [ABT-418], the Ki in assay [1] was found to be 0.00469 µM; in assay [2], 1.97 µM.

For `C#Cc1cncc(C2CCCN2C)c1` (stereo not drawn) [NSC_6442277], the Ki stood at 0.0005 µM in assay [1] and 14.4 µM in assay [2].

In the case of `O=c1cccc2n1CC1CNCC2C1` (stereo not drawn) [CAS_485-35-8], the Ki in assay [1] was found to be 0.0002 µM; in assay [2] it was 1.14 µM.

In the case of `c1cncc(C2CC3CCN2CC3)c1` (stereo not drawn) [TC-2429], the Ki in assay [1] stood at 0.001 µM; in assay [2] it was 0.0124 µM.
